This passage reports IC50 results from patent US20260297085A1, “1 H-PYRROLO[2,3-B]PYRIDIN-4-YL]-2-OXOPYRROLIDINE-3-CARBONITRILE DERIVATIVES AS TYROSINE KINASE 2 (TYK2) INHIBITORS FOR THE TREATMENT OF INFLAMMATORY DISEASES” (BIOGEN MA INC., priority 2023, published 2026).

Assay [1] deals with T1, human JAK2 kinase domain (JH1) (Homo sapiens, UniProt O60674).
T1 construct: recombinantly generated catalytic kinase (also known as JH1) domain of human JAK1, JAK2, JAK3 and TYK2
Kind of assay: JH1 biochemical assay for JAK2 (ADP-Glo kinase assay, recombinant JH1 catalytic domain, JAK3-974 peptide, 15 μM ATP). The settings on record: JH1 kinase domain, ADP-Glo. In a few lines: (§1)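 Compounds were titrated in 11 points of 3-fold dilution starting at 10 μM or 1 μM. Enzyme (JAK1 4 nM, JAK2 0.2 nM, JAK3 0.3 nM, TYK2 2 nM) and 50 μM peptide reacted for 100 minutes, followed by ADP-to-luminescence detection; IC50 by 4-parameter fit.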
(ADP-Glo first removes unused ATP, then detects ADP through luciferase.)

Assay [2] concerns the target Tyk2 kinase activity on STAT4 in NK92 cells (Homo sapiens, UniProt P29597). Kind of assay: pSTAT4 cell assay (MSD; NK92 cells, 30 ng/mL IL2 stimulation). It is filed as cell-based. The settings on record: 30 ng/mL IL2, 15 minutes. The method, boiled down: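 IC50 values derive from 4-parameter logistic fits of normalized percent activity against log compound concentration. Phospho-STAT was measured by MSD with anti-STAT4 antibodies after 15 min of 30 ng/mL IL2 in serum-starved NK92 cells pretreated 1 hr with compound.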

For assay [3], the target named is JAK2 kinase activity on STAT5 in TF1 cells (Homo sapiens, UniProt O60674). Kind of assay: pSTAT5 cell assay (MSD; TF1 cells, 30 ng/mL IL-3 stimulation). It is filed as cell-based. The settings on record: 30 ng/mL IL-3, 15 minutes. In a few lines: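 Serum-starved TF1 cells with native JAK2/STAT5 were pretreated 1 h with compound (10-point four-fold dilutions from 10 μM), then stimulated 15 min with 30 ng/mL IL-3. pSTAT5 in lysates quantified by MSD immunoassay; normalized percent activity fitted to a 4-parameter logistic curve for IC50.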
Sequence of JAK2 kinase activity on STAT5 in TF1 cells (O60674 whole entry): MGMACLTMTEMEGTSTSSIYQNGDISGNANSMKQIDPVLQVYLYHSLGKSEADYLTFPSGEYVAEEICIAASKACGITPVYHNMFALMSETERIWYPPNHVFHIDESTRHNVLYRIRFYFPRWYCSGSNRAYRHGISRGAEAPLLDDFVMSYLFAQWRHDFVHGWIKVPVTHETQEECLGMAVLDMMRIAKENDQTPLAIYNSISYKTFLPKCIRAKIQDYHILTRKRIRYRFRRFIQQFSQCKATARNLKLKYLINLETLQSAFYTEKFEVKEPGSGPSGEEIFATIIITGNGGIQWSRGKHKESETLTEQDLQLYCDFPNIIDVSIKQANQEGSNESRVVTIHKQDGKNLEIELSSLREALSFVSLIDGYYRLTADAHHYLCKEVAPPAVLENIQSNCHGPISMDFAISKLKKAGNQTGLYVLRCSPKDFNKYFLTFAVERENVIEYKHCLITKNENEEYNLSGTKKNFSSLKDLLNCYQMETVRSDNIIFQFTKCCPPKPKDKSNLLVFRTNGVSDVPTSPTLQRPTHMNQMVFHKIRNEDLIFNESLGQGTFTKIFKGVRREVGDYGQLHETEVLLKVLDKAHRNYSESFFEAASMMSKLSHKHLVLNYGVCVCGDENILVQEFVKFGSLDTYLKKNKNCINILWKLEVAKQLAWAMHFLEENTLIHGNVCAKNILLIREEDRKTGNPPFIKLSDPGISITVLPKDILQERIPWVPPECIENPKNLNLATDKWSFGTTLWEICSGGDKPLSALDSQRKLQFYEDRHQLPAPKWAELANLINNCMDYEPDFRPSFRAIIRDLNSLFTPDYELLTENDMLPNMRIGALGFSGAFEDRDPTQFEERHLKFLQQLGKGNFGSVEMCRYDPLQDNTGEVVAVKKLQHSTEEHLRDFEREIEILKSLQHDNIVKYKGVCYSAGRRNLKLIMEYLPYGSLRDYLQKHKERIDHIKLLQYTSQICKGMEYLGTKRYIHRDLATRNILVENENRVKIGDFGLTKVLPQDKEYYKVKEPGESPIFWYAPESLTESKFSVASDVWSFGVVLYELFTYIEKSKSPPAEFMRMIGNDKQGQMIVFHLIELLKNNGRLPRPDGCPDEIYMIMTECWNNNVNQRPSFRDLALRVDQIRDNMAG

In assay [4] the target is T2, human JAK3 kinase domain (JH1) (Homo sapiens, UniProt P52333).
T2 construct: recombinantly generated catalytic kinase (also known as JH1) domain of human JAK1, JAK2, JAK3 and TYK2
T2 sequence (P52333 822-1111 limits assumed): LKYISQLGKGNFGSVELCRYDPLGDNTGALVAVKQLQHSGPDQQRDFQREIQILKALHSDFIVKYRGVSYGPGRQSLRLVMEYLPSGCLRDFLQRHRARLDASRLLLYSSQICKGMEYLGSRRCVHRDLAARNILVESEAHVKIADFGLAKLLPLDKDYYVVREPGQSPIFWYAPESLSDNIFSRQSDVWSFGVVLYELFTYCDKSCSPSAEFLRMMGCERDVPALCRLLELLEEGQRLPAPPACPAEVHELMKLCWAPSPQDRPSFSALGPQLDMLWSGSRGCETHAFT
Kind of assay: JH1 biochemical assay for JAK3 (ADP-Glo kinase assay, recombinant JH1 catalytic domain, JAK3-974 peptide, 4 μM ATP). The settings on record: JH1 kinase domain, ADP-Glo. In a few lines: as §1

Assay [5] has as its target T3, human TYK2 kinase domain (JH1) (Homo sapiens, UniProt P29597).
T3 construct: recombinantly generated catalytic kinase (also known as JH1) domain of human JAK1, JAK2, JAK3 and TYK2
T3 sequence (P29597 897-1176 limits assumed): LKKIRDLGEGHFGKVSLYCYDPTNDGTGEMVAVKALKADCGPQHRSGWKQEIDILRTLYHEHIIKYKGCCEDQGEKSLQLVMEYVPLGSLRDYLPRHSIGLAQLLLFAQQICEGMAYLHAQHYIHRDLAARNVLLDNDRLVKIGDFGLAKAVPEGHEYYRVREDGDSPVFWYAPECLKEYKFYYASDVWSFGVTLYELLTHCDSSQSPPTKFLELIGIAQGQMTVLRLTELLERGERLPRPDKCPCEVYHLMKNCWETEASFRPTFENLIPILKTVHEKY
Kind of assay: JH1 biochemical assay for TYK2 (ADP-Glo kinase assay, recombinant JH1 catalytic domain, JAK3-974 peptide, 10 μM ATP). The settings on record: JH1 kinase domain, ADP-Glo. The method, boiled down:
as §1

Assay [6] deals with T4, human JAK1 kinase domain (JH1) (Homo sapiens, UniProt P23458).
T4 construct: recombinantly generated catalytic kinase (also known as JH1) domain of human JAK1, JAK2, JAK3 and TYK2
T4 sequence (P23458 875-1153 limits assumed): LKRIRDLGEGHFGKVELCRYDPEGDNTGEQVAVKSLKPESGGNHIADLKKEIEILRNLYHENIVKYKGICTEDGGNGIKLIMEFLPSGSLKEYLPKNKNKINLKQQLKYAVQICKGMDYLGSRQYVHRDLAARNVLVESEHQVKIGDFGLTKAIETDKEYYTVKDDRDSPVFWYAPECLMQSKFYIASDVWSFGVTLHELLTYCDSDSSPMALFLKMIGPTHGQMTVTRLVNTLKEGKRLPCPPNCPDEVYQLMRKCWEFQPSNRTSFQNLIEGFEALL
Kind of assay: JH1 biochemical assay for JAK1 (ADP-Glo kinase assay, recombinant JH1 catalytic domain, JAK3-342 peptide, 35 μM ATP). The settings on record: JH1 kinase domain, ADP-Glo. In a few lines: as §1

Assay [7] deals with JAK1 kinase activity on STAT3 in TF1 cells (Homo sapiens, UniProt P23458). Kind of assay: pSTAT3 cell assay (MSD; TF1 cells, 30 ng/mL IL-6 stimulation). The assay is classed as cell-based. The settings on record: 30 ng/mL IL-6, 15 minutes. In a few lines:
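Readout is pSTAT3 in lysates, quantified on an MSD plate assay using anti-STAT3 antibodies. Before lysis, TF1 cells had been serum-starved, exposed to compound for 1 hour across ten four-fold dilutions starting at 10 μM, and given IL-6 for 15 minutes.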

Counter-ions that a name gives are not always drawn.

Sequence of Tyk2 kinase activity on STAT4 in NK92 cells (P29597 whole entry): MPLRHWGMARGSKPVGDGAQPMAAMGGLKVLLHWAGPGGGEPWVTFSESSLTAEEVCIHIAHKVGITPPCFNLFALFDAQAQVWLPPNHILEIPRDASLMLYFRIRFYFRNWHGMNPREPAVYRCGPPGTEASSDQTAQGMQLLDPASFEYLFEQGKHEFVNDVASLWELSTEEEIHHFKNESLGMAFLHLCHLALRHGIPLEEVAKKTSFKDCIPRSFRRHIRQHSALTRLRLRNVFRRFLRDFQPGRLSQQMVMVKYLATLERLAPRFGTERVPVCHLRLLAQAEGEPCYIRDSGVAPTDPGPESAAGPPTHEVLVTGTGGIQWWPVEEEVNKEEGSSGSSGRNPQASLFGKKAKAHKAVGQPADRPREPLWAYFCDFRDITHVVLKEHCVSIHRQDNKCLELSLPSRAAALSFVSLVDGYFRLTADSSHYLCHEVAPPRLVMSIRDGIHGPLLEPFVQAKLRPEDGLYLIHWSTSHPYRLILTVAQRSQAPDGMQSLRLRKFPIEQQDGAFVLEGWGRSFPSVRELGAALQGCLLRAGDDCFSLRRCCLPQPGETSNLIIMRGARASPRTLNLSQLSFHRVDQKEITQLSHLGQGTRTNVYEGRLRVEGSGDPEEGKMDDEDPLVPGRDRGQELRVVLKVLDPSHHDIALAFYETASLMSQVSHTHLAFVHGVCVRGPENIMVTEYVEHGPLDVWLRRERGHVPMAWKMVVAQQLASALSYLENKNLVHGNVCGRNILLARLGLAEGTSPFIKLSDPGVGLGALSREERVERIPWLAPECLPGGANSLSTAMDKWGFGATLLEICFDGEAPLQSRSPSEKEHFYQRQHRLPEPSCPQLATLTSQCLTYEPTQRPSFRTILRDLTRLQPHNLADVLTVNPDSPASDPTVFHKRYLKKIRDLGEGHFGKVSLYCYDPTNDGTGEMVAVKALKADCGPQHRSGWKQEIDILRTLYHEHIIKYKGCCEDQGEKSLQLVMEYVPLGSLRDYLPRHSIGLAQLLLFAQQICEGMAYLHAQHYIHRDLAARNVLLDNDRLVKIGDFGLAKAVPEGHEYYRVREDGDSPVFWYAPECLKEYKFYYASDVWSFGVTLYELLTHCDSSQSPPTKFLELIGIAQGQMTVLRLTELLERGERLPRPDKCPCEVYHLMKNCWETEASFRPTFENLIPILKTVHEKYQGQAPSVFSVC
Sequence of JAK1 kinase activity on STAT3 in TF1 cells (P23458 whole entry): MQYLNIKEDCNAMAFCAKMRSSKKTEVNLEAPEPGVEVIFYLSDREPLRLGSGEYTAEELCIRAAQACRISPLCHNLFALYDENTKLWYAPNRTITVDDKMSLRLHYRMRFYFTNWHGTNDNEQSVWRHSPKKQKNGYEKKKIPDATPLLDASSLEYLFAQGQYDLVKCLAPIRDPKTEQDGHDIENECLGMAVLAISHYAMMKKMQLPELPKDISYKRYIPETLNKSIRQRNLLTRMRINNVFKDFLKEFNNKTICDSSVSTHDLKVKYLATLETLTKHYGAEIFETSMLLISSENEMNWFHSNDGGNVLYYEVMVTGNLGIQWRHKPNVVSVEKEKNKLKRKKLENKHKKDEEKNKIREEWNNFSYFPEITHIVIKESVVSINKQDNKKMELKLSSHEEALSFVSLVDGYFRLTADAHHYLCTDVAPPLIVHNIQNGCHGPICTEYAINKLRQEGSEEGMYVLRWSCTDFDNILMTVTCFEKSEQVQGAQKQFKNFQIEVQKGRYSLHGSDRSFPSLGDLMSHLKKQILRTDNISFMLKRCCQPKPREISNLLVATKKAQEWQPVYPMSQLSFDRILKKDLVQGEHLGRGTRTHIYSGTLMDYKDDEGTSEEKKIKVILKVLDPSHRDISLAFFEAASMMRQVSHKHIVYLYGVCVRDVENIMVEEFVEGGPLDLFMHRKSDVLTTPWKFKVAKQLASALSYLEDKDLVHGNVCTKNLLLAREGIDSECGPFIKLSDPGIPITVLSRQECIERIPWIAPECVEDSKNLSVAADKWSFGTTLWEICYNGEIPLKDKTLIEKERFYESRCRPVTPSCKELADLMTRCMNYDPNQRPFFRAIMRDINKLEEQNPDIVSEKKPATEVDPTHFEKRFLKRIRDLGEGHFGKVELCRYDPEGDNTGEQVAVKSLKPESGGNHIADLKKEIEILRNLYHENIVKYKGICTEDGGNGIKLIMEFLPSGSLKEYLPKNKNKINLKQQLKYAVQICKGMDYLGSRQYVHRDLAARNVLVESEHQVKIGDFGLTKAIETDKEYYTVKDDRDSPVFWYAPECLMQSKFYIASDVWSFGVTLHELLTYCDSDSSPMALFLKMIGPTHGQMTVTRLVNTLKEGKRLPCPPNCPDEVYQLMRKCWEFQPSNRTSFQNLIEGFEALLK
T1 sequence (O60674 849-1124 limits assumed): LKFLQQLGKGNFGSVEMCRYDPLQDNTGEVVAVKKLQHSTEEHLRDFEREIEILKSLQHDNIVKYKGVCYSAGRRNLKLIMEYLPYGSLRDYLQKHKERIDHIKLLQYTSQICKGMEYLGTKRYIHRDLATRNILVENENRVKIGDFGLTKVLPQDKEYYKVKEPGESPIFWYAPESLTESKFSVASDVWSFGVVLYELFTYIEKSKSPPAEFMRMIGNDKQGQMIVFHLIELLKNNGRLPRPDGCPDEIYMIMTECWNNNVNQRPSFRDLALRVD

Broadly, the IC50 is the concentration needed to halve the response being measured. Regarding `C[C@@H]1CN(c2ccnn3cc(-c4cn5c(n4)CCC5)cc23)C(=O)[C@]1(C#N)C1CC1` [Example 106, (3R,4S)-3-cyclopropyl-1-(6-(6,7-dihydro-5H-pyrrolo[1,2-a]imidazol-2-yl)pyrrolo[1,2-b]pyridazin-4-yl)-4-methyl-2-oxopyrrolidine-3-carbonitrile trifluoroacetate], the IC50 in assay [1] was 100 to 1000 nM; in assay [2], greater than 100 nM; in assay [3], greater than 10000 nM; in assay [4], 100 to 1000 nM; in assay [5] it was less than 5 nM; in assay [6], 100 to 1000 nM. The IC50 in assay [7] was greater than 10000 nM.
For the molecule `C[C@@H]1CN(c2ccnn3cc(-c4cc5n(n4)CCO5)cc23)C(=O)[C@]1(C#N)C1CC1` [Example 110, (3R,4S)-3-cyclopropyl-1-(6-(2,3-dihydropyrazolo[5,1-b]oxazol-6-yl)pyrrolo[1,2-b]pyridazin-4-yl)-4-methyl-2-oxopyrrolidine-3-carbonitrile trifluoroacetate], the IC50 is 100 to 1000 nM in assay [1]; greater than 100 nM in assay [2]; greater than 10000 nM in assay [3]; 100 to 1000 nM in assay [4]; 5 to 20 nM in assay [5]; 100 to 1000 nM in assay [6]. Further, the IC50 in assay [7] is greater than 10000 nM.
As for `C[C@@H]1CN(c2ccnn3cc(-c4cn(C)cn4)cc23)C(=O)[C@]1(C#N)C1CC1` [Example 111, (3R,4S)-3-cyclopropyl-4-methyl-1-(6-(1-methyl-1H-imidazol-4-yl)pyrrolo[1,2-b]pyridazin-4-yl)-2-oxopyrrolidine-3-carbonitrile trifluoroacetate], the IC50 is 100 to 1000 nM in assay [1]; greater than 100 nM in assay [2]; greater than 10000 nM in assay [3]; 100 to 1000 nM in assay [4]; less than 5 nM in assay [5]; 100 to 1000 nM in assay [6]. Also, the IC50 in assay [7] is greater than 10000 nM.
In the case of `C[C@@H]1CN(c2ccnn3cc(-c4cn(C)nn4)cc23)C(=O)[C@]1(C#N)C1CC1` [Example 112, (3R,4S)-3-cyclopropyl-4-methyl-1-(6-(1-methyl-1H-1,2,3-triazol-4-yl)pyrrolo[1,2-b]pyridazin-4-yl)-2-oxopyrrolidine-3-carbonitrile trifluoroacetate], the IC50 is 100 to 1000 nM in assay [1]; greater than 100 nM in assay [2]; greater than 10000 nM in assay [3]; 100 to 1000 nM in assay [4]; 5 to 20 nM in assay [5]; 100 to 1000 nM in assay [6]. Further, the IC50 in assay [7] is greater than 10000 nM.
On to `Cc1cnc(-c2cc3c(N4C[C@@H](C)[C@@](C#N)(C5CC5)C4=O)ccnn3c2)s1` [Example 118, (3R,4S)-3-cyclopropyl-4-methyl-1-(6-(5-methylthiazol-2-yl)pyrrolo[1,2-b]pyridazin-4-yl)-2-oxopyrrolidine-3-carbonitrile trifluoroacetate], for which the IC50 in assay [1] was 100 to 1000 nM; in assay [2] it was greater than 100 nM; in assay [3], greater than 10000 nM; in assay [4] it was 100 to 1000 nM; in assay [5], 5 to 20 nM; in assay [6], 100 to 1000 nM. In assay [7], the IC50 fell in the range of 5000 to 10000 nM.
On to `C[C@@H]1CN(c2ccnn3cc(-c4ccc(C(=O)N(C)C)cn4)cc23)C(=O)[C@]1(C#N)C1CC1` [Example 124, 6-(4-((3R,4S)-3-cyano-3-cyclopropyl-4-methyl-2-oxopyrrolidin-1-yl)pyrrolo[1,2-b]pyridazin-6-yl)-N,N-dimethylnicotinamide trifluoroacetate], for which the IC50 was 100 to 1000 nM in assay [1]; greater than 100 nM in assay [2]; 5000 to 10000 nM in assay [3]; 100 to 1000 nM in assay [4]; 5 to 20 nM in assay [5]; 100 to 1000 nM in assay [6]. Further, the IC50 in assay [7] was 5000 to 10000 nM.
On to `C[C@@H]1CN(c2ccnn3cc(-c4ccc(CC#N)cn4)cc23)C(=O)[C@]1(C#N)C1CC1` [Example 127, (3R,4S)-1-(6-(5-(cyanomethyl)pyridin-2-yl)pyrrolo[1,2-b]pyridazin-4-yl)-3-cyclopropyl-4-methyl-2-oxopyrrolidine-3-carbonitrile trifluoroacetate], for which the IC50 was 100 to 1000 nM in assay [1]; greater than 100 nM in assay [2]; greater than 10000 nM in assay [3]; 100 to 1000 nM in assay [4]; 5 to 20 nM in assay [5]; 100 to 1000 nM in assay [6]. Besides, the IC50 in assay [7] lay within 5000 to 10000 nM.
In the case of `C[C@@H]1CN(c2ccnn3cc(-c4cccc5cncn45)cc23)C(=O)[C@]1(C#N)C1CC1` [Example 128, (3R,4S)-3-cyclopropyl-1-(6-(imidazo[1,5-a]pyridin-5-yl)pyrrolo[1,2-b]pyridazin-4-yl)-4-methyl-2-oxopyrrolidine-3-carbonitrile trifluoroacetate], the IC50 is 1000 to 5000 nM in assay [1]; greater than 100 nM in assay [2]; greater than 10000 nM in assay [3]; 100 to 1000 nM in assay [4]; 5 to 20 nM in assay [5]; 100 to 1000 nM in assay [6]. This molecule also displayed an IC50 in assay [7] greater than 10000 nM.
With `CC(=O)Nc1cccc(-c2cc3c(N4C[C@@H](C)[C@@](C#N)(C5CC5)C4=O)ccnn3c2)n1` [Example 131, N-(6-(4-((3R,4S)-3-cyano-3-cyclopropyl-4-methyl-2-oxopyrrolidin-1-yl)pyrrolo[1,2-b]pyridazin-6-yl)pyridin-2-yl)acetamide trifluoroacetate], the IC50 in assay [1] is 100 to 1000 nM; in assay [2] it was 50 to 100 nM; in assay [3], 1000 to 5000 nM; in assay [4] it was 100 to 1000 nM; in assay [5] it was less than 5 nM; in assay [6], less than 100 nM. Also, the IC50 in assay [7] lay within 100 to 1000 nM.
As to `C[C@@H]1CN(c2ccnn3cc(-c4ccc(N(C)C)cn4)cc23)C(=O)[C@]1(C#N)C1CC1` [Example 134, (3R,4S)-3-cyclopropyl-1-(6-(5-(dimethylamino)pyridin-2-yl)pyrrolo[1,2-b]pyridazin-4-yl)-4-methyl-2-oxopyrrolidine-3-carbonitrile trifluoroacetate], the IC50 in assay [1] was 100 to 1000 nM; in assay [2], greater than 100 nM; in assay [3], 5000 to 10000 nM; in assay [4], 100 to 1000 nM; in assay [5] it was 5 to 20 nM; in assay [6] it was 100 to 1000 nM. Further, the IC50 in assay [7] was in the range of 1000 to 5000 nM.
Regarding `C[C@@H]1CN(c2ccnn3cc(-c4cccc(C(F)F)n4)cc23)C(=O)[C@]1(C#N)C1CC1` [Example 135, (3R,4S)-3-cyclopropyl-1-(6-(6-(difluoromethyl)pyridin-2-yl)pyrrolo[1,2-b]pyridazin-4-yl)-4-methyl-2-oxopyrrolidine-3-carbonitrile trifluoroacetate], the IC50 in assay [1] is 100 to 1000 nM; in assay [2], greater than 100 nM; in assay [3], greater than 10000 nM; in assay [4], 100 to 1000 nM; in assay [5] it was 5 to 20 nM; in assay [6], 100 to 1000 nM. In assay [7], this molecule registered a concentration for half-maximal inhibition (IC50) of 1000 to 5000 nM.
`COc1ccc(-c2cc3c(N4C[C@@H](C)[C@@](C#N)(C5CC5)C4=O)ccnn3c2)nc1` [Example 145, (3R,4S)-3-cyclopropyl-1-(6-(5-methoxypyridin-2-yl)pyrrolo[1,2-b]pyridazin-4-yl)-4-methyl-2-oxopyrrolidine-3-carbonitrile trifluoroacetate]: the IC50 in assay [1] is 100 to 1000 nM; in assay [2], greater than 100 nM; in assay [3], greater than 10000 nM; in assay [4], 100 to 1000 nM; in assay [5], 5 to 20 nM; in assay [6], 100 to 1000 nM. In assay [7], this molecule displayed an IC50 of 5000 to 10000 nM.
Consider `C[C@@H]1CN(c2ccnn3cc(-c4cnn(C5CC(F)(F)C5)c4)cc23)C(=O)[C@]1(C#N)C1CC1` [Example 157, (3R,4S)-3-cyclopropyl-1-(6-(1-(3,3-difluorocyclobutyl)-1H-pyrazol-4-yl)pyrrolo[1,2-b]pyridazin-4-yl)-4-methyl-2-oxopyrrolidine-3-carbonitrile], for which the IC50 in assay [1] is less than 100 nM; in assay [2] it was 50 to 100 nM; in assay [3] it was 1000 to 5000 nM; in assay [4], less than 100 nM; in assay [5], less than 5 nM; in assay [6], less than 100 nM. In assay [7], this molecule had an IC50 of 100 to 1000 nM.
